# According to the supplement of paper PMC10307832:
# What was measured:
# Assay in all cases: relative viability (nuclei count vs DMSO), 5 days (fraction); higher = more cells survive
# NCI-H1993 = test system: NCI-H1993
# Outline: (§1)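 Lung cancer cell lines in 1536-well plates got either a single drug or a fixed anchor-drug dose together with five library-drug doses (not always all listed) in √10 steps, by pin tool, on the day after seeding. Nuclei were counted after 5 days, and relative viability is the treated-to-vehicle ratio of nuclei counts. Values are medians of duplicate plates.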
# HCC-827 = test system: HCC-827
# Outline: as §1
# LU99A = test system: LU99A
# Outline: as §1
# NCI-H1944 = test system: NCI-H1944
# Outline: as §1
# SK-LU-1 = test system: SK-LU-1
# Outline: as §1
# LC-2-ad = test system: LC-2-ad
# Outline: as §1
# NCI-H3122 = test system: NCI-H3122
# Outline: as §1
# NCI-H1915 = test system: NCI-H1915
# Outline: as §1
# HCC-15 = test system: HCC-15
# Outline: as §1
# RERF-LC-KJ = test system: RERF-LC-KJ
# Outline: as §1
# NCI-H1755 = test system: NCI-H1755
# Outline: as §1
# NCI-H522 = test system: NCI-H522
# Outline: as §1
# LCLC-97TM1 = test system: LCLC-97TM1
# Outline: as §1
# COR-L 105 = test system: COR-L 105
# Outline: as §1
# EKVX = test system: EKVX
# Outline: as §1
# SK-MES-1 = test system: SK-MES-1
# Outline: as §1
# BEN = test system: BEN
# Outline: as §1
# HCC-366 = test system: HCC-366
# Outline: as §1
# NCI-H2342 = test system: NCI-H2342
# Outline: as §1
# COR-L23 = test system: COR-L23
# Outline: as §1
# PC-3 [JPC-3] = test system: PC-3 [JPC-3]
# Outline: as §1
structure (smiles),measurement,setting,value
COCC1(CO)C(=O)C2CCN1CC2 (stereo unspecified) [PRIMA-1MET] + CC(=O)c1c(C)c2cnc(Nc3ccc(N4CCNCC4)cn3)nc2n(C2CCCC2)c1=O [Palbociclib] (partner 0.5 µM),relative viability,NCI-H1993; first compound 0.2 µM,0.668
same,relative viability,NCI-H1993; first compound 2 µM,0.715
same,relative viability,NCI-H1993; first compound 6.325 µM,0.698
same,relative viability,NCI-H1993; first compound 20 µM,0.703
same,relative viability,HCC-827; first compound 0.2 µM,0.573
same,relative viability,HCC-827; first compound 0.6325 µM,0.462
same,relative viability,HCC-827; first compound 2 µM,0.403
same,relative viability,HCC-827; first compound 6.325 µM,0.506
same,relative viability,HCC-827; first compound 20 µM,0.615
same,relative viability,LU99A; first compound 0.2 µM,0.43
same,relative viability,LU99A; first compound 0.6325 µM,0.414
same,relative viability,LU99A; first compound 2 µM,0.414
same,relative viability,LU99A; first compound 6.325 µM,0.349
same,relative viability,LU99A; first compound 20 µM,0.225
same,relative viability,NCI-H1944; first compound 0.2 µM,0.357
same,relative viability,NCI-H1944; first compound 0.6325 µM,0.285
same,relative viability,NCI-H1944; first compound 2 µM,0.288
same,relative viability,NCI-H1944; first compound 6.325 µM,0.312
same,relative viability,NCI-H1944; first compound 20 µM,0.295
same,relative viability,SK-LU-1; first compound 0.2 µM,0.395
same,relative viability,SK-LU-1; first compound 0.6325 µM,0.385
same,relative viability,SK-LU-1; first compound 2 µM,0.255
same,relative viability,SK-LU-1; first compound 6.325 µM,0.376
same,relative viability,SK-LU-1; first compound 20 µM,0.32
same,relative viability,LC-2-ad; first compound 0.2 µM,0.496
same,relative viability,LC-2-ad; first compound 0.6325 µM,0.484
same,relative viability,LC-2-ad; first compound 2 µM,0.525
same,relative viability,LC-2-ad; first compound 6.325 µM,0.457
same,relative viability,LC-2-ad; first compound 20 µM,0.468
same,relative viability,NCI-H3122; first compound 0.2 µM,0.21
same,relative viability,NCI-H3122; first compound 0.6325 µM,0.167
same,relative viability,NCI-H3122; first compound 2 µM,0.184
same,relative viability,NCI-H3122; first compound 6.325 µM,0.2
same,relative viability,NCI-H3122; first compound 20 µM,0.201
same,relative viability,NCI-H1915; first compound 0.2 µM,0.507
same,relative viability,NCI-H1915; first compound 0.6325 µM,0.496
same,relative viability,NCI-H1915; first compound 2 µM,0.451
same,relative viability,NCI-H1915; first compound 6.325 µM,0.518
same,relative viability,NCI-H1915; first compound 20 µM,0.523
same,relative viability,HCC-15; first compound 0.2 µM,0.677
same,relative viability,HCC-15; first compound 0.6325 µM,0.407
same,relative viability,HCC-15; first compound 2 µM,0.687
same,relative viability,HCC-15; first compound 6.325 µM,0.735
same,relative viability,HCC-15; first compound 20 µM,0.652
same,relative viability,RERF-LC-KJ; first compound 0.2 µM,1.13
same,relative viability,RERF-LC-KJ; first compound 0.6325 µM,1.13
same,relative viability,RERF-LC-KJ; first compound 2 µM,0.978
same,relative viability,RERF-LC-KJ; first compound 6.325 µM,1.08
same,relative viability,RERF-LC-KJ; first compound 20 µM,1.04
same,relative viability,NCI-H1755; first compound 0.2 µM,0.479
same,relative viability,NCI-H1755; first compound 0.6325 µM,0.397
same,relative viability,NCI-H1755; first compound 2 µM,0.43
same,relative viability,NCI-H1755; first compound 6.325 µM,0.482
same,relative viability,NCI-H1755; first compound 20 µM,0.459
same,relative viability,NCI-H522; first compound 0.2 µM,1.05
same,relative viability,NCI-H522; first compound 0.6325 µM,0.94
same,relative viability,NCI-H522; first compound 2 µM,0.862
same,relative viability,NCI-H522; first compound 6.325 µM,0.774
same,relative viability,NCI-H522; first compound 20 µM,0.25
same,relative viability,LCLC-97TM1; first compound 0.2 µM,0.215
same,relative viability,LCLC-97TM1; first compound 0.6325 µM,0.192
same,relative viability,LCLC-97TM1; first compound 2 µM,0.193
same,relative viability,LCLC-97TM1; first compound 6.325 µM,0.264
same,relative viability,LCLC-97TM1; first compound 20 µM,0.206
same,relative viability,COR-L 105; first compound 0.2 µM,0.41
same,relative viability,COR-L 105; first compound 0.6325 µM,0.363
same,relative viability,COR-L 105; first compound 2 µM,0.385
same,relative viability,COR-L 105; first compound 6.325 µM,0.41
same,relative viability,COR-L 105; first compound 20 µM,0.16
same,relative viability,EKVX; first compound 0.2 µM,0.42
same,relative viability,EKVX; first compound 2 µM,0.346
same,relative viability,EKVX; first compound 6.325 µM,0.368
same,relative viability,EKVX; first compound 20 µM,0.321
same,relative viability,SK-MES-1; first compound 0.2 µM,0.323
same,relative viability,SK-MES-1; first compound 0.6325 µM,0.371
same,relative viability,SK-MES-1; first compound 2 µM,0.326
same,relative viability,SK-MES-1; first compound 6.325 µM,0.291
same,relative viability,SK-MES-1; first compound 20 µM,0.295
same,relative viability,BEN; first compound 0.2 µM,0.46
same,relative viability,BEN; first compound 0.6325 µM,0.463
same,relative viability,BEN; first compound 6.325 µM,0.463
same,relative viability,BEN; first compound 20 µM,0.437
same,relative viability,HCC-366; first compound 0.2 µM,0.433
same,relative viability,HCC-366; first compound 0.6325 µM,0.31
same,relative viability,HCC-366; first compound 2 µM,0.382
same,relative viability,HCC-366; first compound 6.325 µM,0.407
same,relative viability,HCC-366; first compound 20 µM,0.0167
same,relative viability,NCI-H2342; first compound 0.2 µM,0.602
same,relative viability,NCI-H2342; first compound 0.6325 µM,0.452
same,relative viability,NCI-H2342; first compound 6.325 µM,0.535
same,relative viability,NCI-H2342; first compound 20 µM,0.463
same,relative viability,COR-L23; first compound 0.2 µM,0.291
same,relative viability,COR-L23; first compound 0.6325 µM,0.191
same,relative viability,COR-L23; first compound 2 µM,0.251
same,relative viability,COR-L23; first compound 6.325 µM,0.353
same,relative viability,COR-L23; first compound 20 µM,0.0222
same,relative viability,PC-3 [JPC-3]; first compound 0.2 µM,0.597
same,relative viability,PC-3 [JPC-3]; first compound 0.6325 µM,0.608
same,relative viability,PC-3 [JPC-3]; first compound 2 µM,0.573
same,relative viability,PC-3 [JPC-3]; first compound 6.325 µM,0.574
same,relative viability,PC-3 [JPC-3]; first compound 20 µM,0.521
